Measured values published in patent publication US9364479B2, “Use of a receptor-type kinase modulator for treating polycystic kidney disease” (SYMPHONY EVOLUTION, INC., priority 2010, dated 2016).
Where two headings read alike, the source gives them in different places.

Columns and labels:
[1] = test system: subjects with non-small-cell lung cancer; test: Clinical Study XL-647-201 (Phase 2, NSCLC front-line); type: in vivo, human; settings: Intermittent 5&9 schedule
Text: Study XL-647-201: Subjects with non-small-cell lung cancer (NSCLC) (n=52) of adenomacarcinoma histology, Stage IIIB, with malignant pleural effusion, or Stage IV previously untreated for metastatic disease were enrolled. Subjects were selected for clinical characteristics predictive of response to EGFR inhibitors (Asian, female, and/or minimal and remote smoking history).

Histamine, H2 = target: T1, Histamine, H2 (Homo sapiens, UniProt P25021); test: NovaScreen assay; type: binding; settings: read-out: Inhibition, 10 μM XL-647
T1 construct: NovaScreen

[2] = target: T2, panel of pharmacological targets, including receptors, transporters, and enzymes; test: NovaScreen panel, overall statements; type: binding; settings: muscarinic receptors, α2-adrenergic receptor and dopamine transporter
T2 construct: IC50 values; other: muscarinic receptors, α2-adrenergic receptor and dopamine transporter

[3] = test system: panel of pharmacological targets, including receptors, transporters, and enzymes; test: NovaScreen panel, overall statements; type: binding; settings: single in vitro concentration of 10 μM
PKA = target: T3, PKA (Bos taurus, UniProt P00517); test: Chemiluminescent kinase assay; type: biochemical, bovine
T3 construct: Bovine (Heart),; purchased Upstate Biotechnology; host or cells: bovine heart
Description: (§1) Further screening was performed using the biochemical assay methods of Example 2. Additional description of the components and concentrations are summarized in Table 8, Table 9, and Table 10, below.

c-Kit = c-Kit (Homo sapiens, UniProt P10721); test: AlphaScreen kinase assay; type: biochemical; parameters: Human, T544-; MgCl2, 3 mM MnCl2, 1 mM; V976, N-GST,; GST (N); purchased ProQinase
Description: An AlphaScreen tyrosine kinase assay was used to measure ErbB2 and Flt-4 activity. Donor beads coated with streptavidin and acceptor beads coated with PY100 anti-phosphotyrosine antibody (Perkin-Elmer) were used. Biotinylated poly(Glu,Tyr) 4:1 was used as the substrate. Substrate phosphorylation was measured by luminescence following donor-acceptor bead addition followed by complex formation. Test compound, 3 μmol/L ATP, 3 nmol/L biotinylated poly(Glu,Tyr) 4:1, and 1 nmol/L ErbB2 (residues Q679-V1255 of human ErbB2, Proqinase) or Flt-4 (residues D725-R1298 of human Flt-4, Proqinase) were combined in a volume of 20 μL Assay Buffer (20 mM TrisHCl, pH 7.5, 10 mM MgCl2, 3 mM MnCl2, 1 mM DTT, 0.01% Triton) in a 384-well white, medium-binding microtiter plate (Greiner). Reaction mixtures were incubated for 1 h at room temperature. Reactions were quenched by addition of 10 μL of 15 to 30 μg/mL AlphaScreen bead suspension containing 75 mmol/L HEPES (pH 7.4), 300 mmol/L NaCl, 120 mmol/L EDTA, 0.3% bovine serum albumin, and 0.03% Tween 20. After 2 to 16 h of incubation at room temperature, plates were read using an AlphaQuest reader (Perkin-Elmer).
as §1

PCK rat = type: in vivo; settings: for CT-CI / Creatinine / Kidney/Body weight: PN Day 90
Text: The phenotype of the PCK rat is different from that of humans in that it has a slower disease progression and slower decline in renal function. The PCK rats came from a mutated colony of Sprague-Dawley rats from Fujita Health University and were housed at the Medical College of Wisconsin.
Two hours after last injection on PN90 the rats were sacrificed and the kidneys and liver were removed and weighed. Post-mortem measurements included KW/BW ratio and cystic index (CI) using renal sections from the cortex, medulla, and papilla. CT-CI was then determined from cystic index which was based on renal cyst size at 15 day intervals from PN0 to PN135. Renal function was assessed with BUN and creatinine levels from cardiac puncture.

[4] = target: T4, Platelet Activating Factor, PAF (Homo sapiens, UniProt P25105); test: NovaScreen assay; type: binding; settings: read-out: Inhibition, 10 μM XL-647
T4 construct: NovaScreen

EphA2 = EphA2 (Homo sapiens, UniProt P29317); test: EphA2 autophosphorylation ELISA, PC-3 cells; type: cell-based; settings: read-out: Cellular IC50, autophosphorylation
Description: The EphA2 autophosphorylation ELISA utilized PC-3 (ATCC) cells. Cells were seeded at 2.5×10^4 cells/well onto 96-well microtiter plates (Costar 3904), in DMEM (Cellgro) containing 10% FBS (Heat-Inactivated, Hyclone), 1% penicillin-streptomycin (Cellgro), and 1% NEAA solution (Cellgro). The cells were then incubated at 37° C., 5% CO2 for 16 h. Growth media was replaced with serum-free DMEM and cells were incubated for an additional 24 hr. […] Negative control wells were not treated with growth factor. After treatment, media was removed, the cell monolayer washed with cold PBS and immediately lysed with cold lysis buffer. Lysates were centrifuged and incubated into 96-well streptavidin-coated plates (Pierce) coated with biotin-conjugated, mouse anti-phosphotyrosine, PY20 (2 μg/ml, Calbiochem). Plates were incubated with rabbit polyclonal anti-EphA2, C-20 (1:500, Santa Cruz Biotechnology, Inc), followed by secondary antibody (HRP-conjugated, goat anti-rabbit IgG, 1:1000 from Cell Signaling) and the addition of a luminol-based substrate solution. Plates were read with a Victor spectrophotometer (Wallac).

EMK = target: T5, EMK (Homo sapiens, UniProt Q7KZI7); test: Chemiluminescent kinase assay; type: biochemical
T5 construct: His6 (N)
Description: as §1

GSK3β = target: T6, GSK3β (Homo sapiens, UniProt P49841); test: Chemiluminescent kinase assay; type: biochemical
T6 construct: His6 (N); purchased Upstate Biotechnology
Description: as §1

MAP4K3 = target: T7, MAP4K3 (Homo sapiens, UniProt Q8IVH8); test: Chemiluminescent kinase assay; type: biochemical
T7 construct: Kinase domain,; His6 (N)
Description: as §1

Tie-2 = Tie-2 (Homo sapiens, UniProt Q02763); test: Radiometric kinase assay; type: biochemical
Description: (§2) A radiometric ^33P-Phosphoryl transfer kinase assay was used to measure EphB4, insulin-like growth factor-I receptor (IGFR-1), and insulin receptor (IRK) activity. Reactions were performed in 384-well white, clear bottom, high-binding microtiter plates (Greiner). Plates were coated with 2 μg/well peptide substrate in a 50 μL volume. […] The coated plates were washed once with 50 μL assay buffer following overnight incubation at room temperature. Test compound and either 5 nmol/L EphB4 (residues E605-E890 of human EphB4 containing a six histidine NH2-terminal tag, expressed in a baculovirus expression system and purified using metal chelate chromatography), 4 nmol/L insulin-like growth factor-I receptor (residues M954-C1367 of human insulin-like growth factor-I receptor, Proqinase GmbH), or 15 nmol/L insulin receptor 1 (residues P948-S1343 of human insulin receptor 1, Proqinase) were combined with [^33P]g-ATP (5 μmol/L, 3.3 μCi/nmol) in a total volume of 20 μL. The reaction mixture was incubated at room temperature for 1.5 to 2.5 h and terminated by aspiration. The microtiter plates were subsequently washed six times with 0.05% Tween-PBS buffer. Scintillation fluid (50 μL/well) was added and incorporated ^33P was measured by liquid scintillation spectrometry using a MicroBeta scintillation counter (Perkin-Elmer). […]

Flt1 = Flt1 (Homo sapiens, UniProt P17948); test: Radiometric kinase assay; type: biochemical
Description: as §2

[5] = 7.5 mg/kg/day, PN Day 90, 7.5 mg/kg/day
[6] = 7.5 mg/kg/day, PN Day 90, listed as PRIM-001, 7.5 mg/kg/day
[7] = 15 mg/kg/day, PN Day 90, 15 mg/kg/day
[8] = 15 mg/kg/day, PN Day 90, listed as PRIM-001, 15 mg/kg/day

T5 sequence (Q7KZI7 whole entry): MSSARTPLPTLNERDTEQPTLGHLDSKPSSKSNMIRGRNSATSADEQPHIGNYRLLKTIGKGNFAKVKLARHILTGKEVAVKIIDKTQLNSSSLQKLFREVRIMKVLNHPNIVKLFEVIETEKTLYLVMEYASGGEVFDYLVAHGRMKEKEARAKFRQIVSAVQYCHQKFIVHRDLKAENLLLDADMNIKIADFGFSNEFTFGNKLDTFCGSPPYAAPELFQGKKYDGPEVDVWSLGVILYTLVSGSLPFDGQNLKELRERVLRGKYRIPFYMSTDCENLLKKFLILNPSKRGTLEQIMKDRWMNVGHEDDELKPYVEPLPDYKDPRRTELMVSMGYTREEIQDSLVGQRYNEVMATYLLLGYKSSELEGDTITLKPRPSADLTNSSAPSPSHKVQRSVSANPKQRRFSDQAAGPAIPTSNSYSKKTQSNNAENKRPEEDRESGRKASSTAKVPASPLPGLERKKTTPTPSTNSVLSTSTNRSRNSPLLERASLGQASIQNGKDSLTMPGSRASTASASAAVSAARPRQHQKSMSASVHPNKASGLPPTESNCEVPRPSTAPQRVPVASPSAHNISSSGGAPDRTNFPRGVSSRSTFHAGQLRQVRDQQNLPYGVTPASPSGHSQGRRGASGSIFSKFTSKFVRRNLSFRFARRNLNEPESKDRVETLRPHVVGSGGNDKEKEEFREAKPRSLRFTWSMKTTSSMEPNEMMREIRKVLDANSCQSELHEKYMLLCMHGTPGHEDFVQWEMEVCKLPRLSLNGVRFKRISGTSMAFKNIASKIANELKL
EphA2, sequence (P29317 24-976): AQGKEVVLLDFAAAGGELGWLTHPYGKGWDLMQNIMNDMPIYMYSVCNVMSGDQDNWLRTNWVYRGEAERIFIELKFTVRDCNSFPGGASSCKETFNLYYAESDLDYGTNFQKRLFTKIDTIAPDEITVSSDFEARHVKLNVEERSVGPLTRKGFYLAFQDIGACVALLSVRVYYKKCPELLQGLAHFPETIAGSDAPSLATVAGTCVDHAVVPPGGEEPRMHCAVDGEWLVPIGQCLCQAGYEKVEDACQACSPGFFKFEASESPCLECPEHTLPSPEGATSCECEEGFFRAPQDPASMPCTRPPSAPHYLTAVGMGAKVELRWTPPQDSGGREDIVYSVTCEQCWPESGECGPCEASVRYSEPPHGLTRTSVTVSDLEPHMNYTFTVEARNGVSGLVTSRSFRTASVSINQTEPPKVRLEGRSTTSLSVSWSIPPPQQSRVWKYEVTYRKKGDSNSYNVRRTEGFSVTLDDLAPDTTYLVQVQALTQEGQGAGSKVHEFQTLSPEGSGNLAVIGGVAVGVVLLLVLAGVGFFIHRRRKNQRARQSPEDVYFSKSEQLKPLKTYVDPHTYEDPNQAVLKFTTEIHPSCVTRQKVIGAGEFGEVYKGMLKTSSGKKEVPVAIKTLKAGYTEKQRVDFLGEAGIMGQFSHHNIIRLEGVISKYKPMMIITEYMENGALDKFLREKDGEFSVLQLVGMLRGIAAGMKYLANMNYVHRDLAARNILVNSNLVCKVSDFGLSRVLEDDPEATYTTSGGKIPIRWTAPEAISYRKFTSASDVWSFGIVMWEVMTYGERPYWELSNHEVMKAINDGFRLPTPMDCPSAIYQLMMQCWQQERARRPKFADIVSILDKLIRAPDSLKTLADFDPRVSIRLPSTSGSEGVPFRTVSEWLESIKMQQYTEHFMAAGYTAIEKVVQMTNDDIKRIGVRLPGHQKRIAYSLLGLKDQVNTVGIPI
T7 sequence (Q8IVH8 16-273 limits assumed, species assumed): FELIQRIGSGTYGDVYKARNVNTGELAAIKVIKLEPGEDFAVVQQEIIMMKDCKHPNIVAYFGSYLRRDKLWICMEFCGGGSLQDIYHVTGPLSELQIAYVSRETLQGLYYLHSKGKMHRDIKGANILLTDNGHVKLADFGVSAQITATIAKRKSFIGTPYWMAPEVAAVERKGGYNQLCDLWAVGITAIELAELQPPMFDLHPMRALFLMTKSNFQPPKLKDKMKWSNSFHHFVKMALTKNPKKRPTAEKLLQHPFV
T4 sequence (P25105 whole entry): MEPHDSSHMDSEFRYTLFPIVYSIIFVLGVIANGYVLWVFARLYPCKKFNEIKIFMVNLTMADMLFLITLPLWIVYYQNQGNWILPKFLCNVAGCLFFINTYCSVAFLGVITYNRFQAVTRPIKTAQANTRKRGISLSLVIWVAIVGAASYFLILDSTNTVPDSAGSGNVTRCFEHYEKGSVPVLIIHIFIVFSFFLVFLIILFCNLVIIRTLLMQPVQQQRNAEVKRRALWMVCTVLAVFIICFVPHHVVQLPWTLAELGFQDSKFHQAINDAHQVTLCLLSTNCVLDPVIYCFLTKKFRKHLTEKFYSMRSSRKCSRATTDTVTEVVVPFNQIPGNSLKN
c-Kit, sequence (P10721 544-976): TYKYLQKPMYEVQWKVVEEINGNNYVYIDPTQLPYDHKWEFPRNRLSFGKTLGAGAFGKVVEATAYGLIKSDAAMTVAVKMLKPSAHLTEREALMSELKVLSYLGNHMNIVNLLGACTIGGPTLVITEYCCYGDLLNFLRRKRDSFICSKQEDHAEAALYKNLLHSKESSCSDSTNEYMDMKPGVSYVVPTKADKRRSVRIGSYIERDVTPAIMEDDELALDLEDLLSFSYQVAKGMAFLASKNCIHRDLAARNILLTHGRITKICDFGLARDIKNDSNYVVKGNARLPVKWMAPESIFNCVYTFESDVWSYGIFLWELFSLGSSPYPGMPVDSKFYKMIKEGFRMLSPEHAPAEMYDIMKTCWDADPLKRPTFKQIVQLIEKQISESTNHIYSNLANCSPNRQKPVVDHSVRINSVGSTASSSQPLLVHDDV
T6 sequence (P49841 whole entry): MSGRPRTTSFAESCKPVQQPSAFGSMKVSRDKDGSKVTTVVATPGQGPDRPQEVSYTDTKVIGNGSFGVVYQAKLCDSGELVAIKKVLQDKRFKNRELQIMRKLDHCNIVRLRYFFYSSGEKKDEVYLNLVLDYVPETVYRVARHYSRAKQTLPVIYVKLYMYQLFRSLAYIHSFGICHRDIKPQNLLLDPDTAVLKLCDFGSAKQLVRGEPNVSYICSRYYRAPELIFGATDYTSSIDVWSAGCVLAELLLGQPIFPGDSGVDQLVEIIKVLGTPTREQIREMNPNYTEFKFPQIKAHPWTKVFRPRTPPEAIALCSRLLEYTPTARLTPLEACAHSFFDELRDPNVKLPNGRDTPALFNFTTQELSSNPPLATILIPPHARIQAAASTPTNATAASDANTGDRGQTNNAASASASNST
Tie-2, sequence (Q02763 23-1124): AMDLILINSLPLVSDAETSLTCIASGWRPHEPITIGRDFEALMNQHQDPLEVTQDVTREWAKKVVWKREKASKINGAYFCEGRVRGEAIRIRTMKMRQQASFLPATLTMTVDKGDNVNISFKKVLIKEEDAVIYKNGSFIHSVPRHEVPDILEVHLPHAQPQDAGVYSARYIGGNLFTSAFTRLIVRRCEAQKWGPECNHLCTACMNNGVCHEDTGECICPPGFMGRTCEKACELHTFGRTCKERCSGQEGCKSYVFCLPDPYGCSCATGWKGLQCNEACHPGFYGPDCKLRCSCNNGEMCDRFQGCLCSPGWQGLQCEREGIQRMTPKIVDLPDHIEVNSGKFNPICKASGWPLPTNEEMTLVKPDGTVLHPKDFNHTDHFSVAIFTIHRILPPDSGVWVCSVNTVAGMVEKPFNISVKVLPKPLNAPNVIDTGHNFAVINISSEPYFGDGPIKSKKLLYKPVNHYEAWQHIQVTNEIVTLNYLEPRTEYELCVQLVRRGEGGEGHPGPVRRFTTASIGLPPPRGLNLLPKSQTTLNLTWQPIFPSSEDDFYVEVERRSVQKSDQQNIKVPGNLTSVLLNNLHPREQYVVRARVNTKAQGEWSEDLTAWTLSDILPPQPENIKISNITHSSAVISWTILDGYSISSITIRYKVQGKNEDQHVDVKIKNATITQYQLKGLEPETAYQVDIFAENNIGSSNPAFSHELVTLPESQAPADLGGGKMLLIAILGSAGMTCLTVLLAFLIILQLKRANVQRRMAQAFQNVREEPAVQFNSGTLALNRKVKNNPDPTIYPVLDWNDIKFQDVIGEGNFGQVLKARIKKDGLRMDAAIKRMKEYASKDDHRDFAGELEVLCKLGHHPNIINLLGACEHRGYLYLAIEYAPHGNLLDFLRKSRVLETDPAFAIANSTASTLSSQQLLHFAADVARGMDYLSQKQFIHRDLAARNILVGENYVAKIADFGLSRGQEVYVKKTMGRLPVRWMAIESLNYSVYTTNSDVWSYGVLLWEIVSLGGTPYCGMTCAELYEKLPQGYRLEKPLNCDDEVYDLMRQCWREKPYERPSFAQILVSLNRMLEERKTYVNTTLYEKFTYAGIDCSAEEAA
T1 sequence (P25021 whole entry): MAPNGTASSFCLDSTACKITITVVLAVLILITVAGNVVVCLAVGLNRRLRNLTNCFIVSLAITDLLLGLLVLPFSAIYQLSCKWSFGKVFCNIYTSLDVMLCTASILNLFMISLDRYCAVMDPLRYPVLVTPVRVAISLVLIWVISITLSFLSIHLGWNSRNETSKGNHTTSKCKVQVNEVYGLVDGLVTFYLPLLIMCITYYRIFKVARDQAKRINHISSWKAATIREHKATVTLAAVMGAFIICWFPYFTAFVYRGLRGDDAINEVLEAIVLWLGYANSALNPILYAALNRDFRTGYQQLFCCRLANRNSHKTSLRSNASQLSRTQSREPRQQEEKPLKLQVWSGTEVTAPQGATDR

COc1cc2c(Nc3ccc(Cl)c(Cl)c3F)ncnc2cc1OC[C@@H]1C[C@@H]2CN(C)C[C@@H]2C1 [XL-647, N-(3,4-dichloro-2-fluorophenyl)-7-({[(3aR,5r,6aS)-2-methyloctahydrocyclopenta[c]pyrrol-5-yl]methyl}oxy)-6-(methyloxy)quinazolin-4-amine]
clinical benefit rate (PR+SD) ([1]; 38 evaluable): 71%
subjects with PR ([1]; of 38 evaluable): 10 subjects
subjects with SD lasting 3 months or more ([1]; of 38 evaluable): 17 subjects
inhibition at 10 µM (Histamine, H2): 45.7%
IC50 [2]: 1000 to 2700 nM
interaction with the panel, in words [3]: interact with very few of the pharmacological targets
IC50 (PKA): > 10000 nM
IC50 (c-Kit): 132 ± 8.2 nM
decrease of BUN level (PCK rat; 7.5 mg/kg q.d.): 19.2%
decrease of kidney weight (PCK rat; 7.5 mg/kg q.d.): 13.4%
reduction of CT-CI (PCK rat; 7.5 mg/kg q.d.): 19.6%
CT-CI (PCK rat; 7.5 mg/kg/day): 5.63
Creatinine (PCK rat; 7.5 mg/kg/day): 0.48 ± 0.09 mg/dL
Kidney/Body weight (PCK rat; 7.5 mg/kg/day): 1.5%
BUN (PCK rat; [5]): 27.50 ± 3.74 mg/dL
Kidney Weight (PCK rat; [5]): 5.77 ± 0.47 g
BUN (PCK rat; [6]): 27.50 ± 3.74 mg/dL
Kidney Weight (PCK rat; [6]): 5.77 g
decrease of BUN level (PCK rat; 15 mg/kg q.d.): 28.8%
decrease of kidney weight (PCK rat; 15 mg/kg q.d.): 26.0%
reduction of CT-CI (PCK rat; 15 mg/kg q.d.): 35.7%
CT-CI (PCK rat; 15 mg/kg/day): 4.50
Creatinine (PCK rat; 15 mg/kg/day): 0.46 ± 0.07 mg/dL
Kidney/Body weight (PCK rat; 15 mg/kg/day): 1.31%
BUN (PCK rat; [7]): 24.25 ± 4.3 mg/dL
Kidney Weight (PCK rat; [7]): 4.93 ± 0.42 g
BUN (PCK rat; [8]): 24.25 ± 4.30 mg/dL
Kidney Weight (PCK rat; [8]): 4.93 g
inhibition at 10 µM [4]: 11.7%
IC50 (EphA2): 1100 nM
IC50 (EMK): > 10000 nM
IC50 (GSK3β): > 1000 nM
IC50 (MAP4K3): > 1000 nM
IC50 (Tie-2): 54 ± 13.4 nM
IC50 (Flt1): 56.5 ± 15.5 nM
